From US5900488A, “Method for treating mycosis using imidazolylacetonitrile derivatives” (Nihon Nohyaku Co., Ltd., priority 1995, dated 1999)
Converted amounts (≈) assume the structure as drawn. Where two headings read alike, the source gives them in different places.

Tests used:
[1] = system: Trichophyton mentagrophytes; experiment: In vitro activity against Trichophyton mentagrophytes, MIC by twofold macro-broth dilution (Test Example 1); type: cell-based; conditions: Trichophyton mentagrophytes, 7 days at 27° C.
Protocol: (§1) Minimum inhibitory concentrations (MICs) were determined by the twofold macro-broth dilution method with Sabouraud's glucose broth which constituted with 1% bactopeptone and 4% glucose. To each tube containing 9.8 ml of the broth, 0.1 ml of each testing compound dissolved in DMSO and 0.1 ml of a conidial suspension (1×10^6 conidia/ml) were added. The fungal growth was observed after incubation for 7 days at 27° C. The MIC was determined as the lowest drug concentration which prevented a visible fungal growth.

Trichophyton rubrum = experiment: In vitro activity against Trichophyton rubrum, MIC by twofold macro-broth dilution (Test Example 1); type: cell-based
Protocol: as §1

Candida albicans = experiment: In vitro antifungal activity against Candida albicans, MIC by twofold micro-broth dilution (Test Example 3); type: cell-based
Protocol: MICs were determined by the twofold micro-broth dilution method with RPMI 1640 buffered with morphorino-propanesulfonic acid to a final molarity of 0.165M (pH 7.0). One hundred μl of a yeast cell suspension (1 to 5×10^3 cells/ml) and 100 μl of the compound-containing medium were pipetted into each well flat-bottomed microtiter plates. After incubation for 48 hours at 35° C., the turbidity of each well was measured at 630 nm.

Aspergillus fumigatus = experiment: In vitro antifungal activity against Aspergillus fumigatus, MIC by twofold agar dilution (Test Example 4); type: cell-based; conditions: read-out: MIC
Protocol: MICs were determined by the twofold agar dilution method with casitone agar which constituted with 0.9% bactocasitone, 1% bacto-yeast extract, 2% glucose, 0.1% KH2 PO4, 0.1% Na2 HPO4, 1% Na3 C6 H5 O7 and 1.6% agar. A loopful of each inoculum (1×10^6 conidia/ml) was streaked onto the agar plate containing a compound, and a fungal growth was observed after incubation for 48 hours at 35° C. The MIC was determined as the lowest drug concentration which prevented a visible fungal growth.

dermatophytes = experiment: Antifungal activity against dermatophytes compared with racemic mixtures (general statement); conditions: especially highly sensitive strains
[2] = IFO5466, 168 h, strain IFO 5466
[3] = IFO5809, 168 h, strain IFO 5809
[4] = IFO5810, 168 h, strain IFO 5810
[5] = IFO5811, 168 h, strain IFO 5811
[6] = IFO5929, 168 h, strain IFO 5929
[7] = TIMM1189, 168 h, strain TIMM 1189
[8] = TIMM1814, 168 h, strain TIMM 1814
[9] = TIMM1815, 168 h, strain TIMM 1815
[10] = TIMM1817, 168 h, strain TIMM 1817
[11] = TIMM2789, 168 h, strain TIMM 2789
[12] = IFO5467, 168 h, strain IFO 5467, 7 days at 27° C.
[13] = IFO5807, 168 h, strain IFO 5807, 7 days at 27° C.
[14] = IFO5808, 168 h, strain IFO 5808, 7 days at 27° C.
[15] = IFO6203, 168 h, strain IFO 6203, 7 days at 27° C.
[16] = IFO6204, 168 h, strain IFO 6204, 7 days at 27° C.
[17] = IFO9185, 168 h, strain IFO 9185, 7 days at 27° C.
[18] = TIMM1822, 168 h, strain TIMM 1822, 7 days at 27° C.
[19] = TIMM1823, 168 h, strain TIMM 1823, 7 days at 27° C.
[20] = TIMM1824, 168 h, strain TIMM 1824, 7 days at 27° C.
[21] = TIMM1830, 168 h, strain TIMM 1830, 7 days at 27° C.
[22] = IFO0197, strain IFO 0197, 80% inhibition, 48 hours at 35° C., pH 7.0, read-out: MIC
[23] = IFO0579, strain IFO 0579, 80% inhibition, 48 hours at 35° C., pH 7.0, read-out: MIC
[24] = IFO1269, strain IFO 1269, 80% inhibition, 48 hours at 35° C., pH 7.0, read-out: MIC
[25] = IFO1270, strain IFO 1270, 80% inhibition, 48 hours at 35° C., pH 7.0, read-out: MIC
[26] = IFO1385, strain IFO 1385, 80% inhibition, 48 hours at 35° C., pH 7.0, read-out: MIC
[27] = IFO1386, strain IFO 1386, 80% inhibition, 48 hours at 35° C., pH 7.0, read-out: MIC
[28] = TIMM3163, strain TIMM 3163, 80% inhibition, 48 hours at 35° C., pH 7.0, read-out: MIC
[29] = TIMM3164, strain TIMM 3164, 80% inhibition, 48 hours at 35° C., pH 7.0, read-out: MIC
[30] = TIMM3165, strain TIMM 3165, 80% inhibition, 48 hours at 35° C., pH 7.0, read-out: MIC
[31] = TIMM3166, strain TIMM 3166, 80% inhibition, 48 hours at 35° C., pH 7.0, read-out: MIC

Structure (SMILES) | MIC [1, 2] [µg/mL] | MIC [1, 3] [µg/mL] | MIC [1, 4] [µg/mL] | MIC [1, 5] [µg/mL] | MIC [1, 6] [µg/mL] | MIC [1, 7] [µg/mL] | MIC [1, 8] [µg/mL] | MIC [1, 9] [µg/mL] | MIC [1, 10] [µg/mL] | MIC [1, 11] [µg/mL] | MIC (Trichophyton rubrum; [12]) [µg/mL] | MIC (Trichophyton rubrum; [13]) [µg/mL] | MIC (Trichophyton rubrum; [14]) [µg/mL] | MIC (Trichophyton rubrum; [15]) [µg/mL] | MIC (Trichophyton rubrum; [16]) [µg/mL] | MIC (Trichophyton rubrum; [17]) [µg/mL] | MIC (Trichophyton rubrum; [18]) [µg/mL] | MIC (Trichophyton rubrum; [19]) [µg/mL] | MIC (Trichophyton rubrum; [20]) [µg/mL] | MIC (Trichophyton rubrum; [21]) [µg/mL] | other results
N#C/C(=C1/SC[C@@H](c2ccc(Cl)cc2Cl)S1)n1ccnc1 [Compound (B), R-(-)-(E)-[4-(2,4-dichlorophenyl)-1,3-dithiolan-2-ylidene]-1-imidazolylacetonitrile] | 0.02 (≈ 0.0565 µM) | 0.005 (≈ 0.0141 µM) | 0.005 (≈ 0.0141 µM) | 0.01 (≈ 0.0282 µM) | 0.01 (≈ 0.0282 µM) | 0.01 (≈ 0.0282 µM) | 0.02 (≈ 0.0565 µM) | 0.02 (≈ 0.0565 µM) | 0.01 (≈ 0.0282 µM) | 0.0025 (≈ 0.00706 µM) | 0.0025 (≈ 0.00706 µM) | 0.0025 (≈ 0.00706 µM) | 0.0025 (≈ 0.00706 µM) | 0.0013 (≈ 0.00367 µM) | 0.0025 (≈ 0.00706 µM) | 0.0013 (≈ 0.00367 µM) | 0.00063 (≈ 0.00178 µM) | 0.0013 (≈ 0.00367 µM) | 0.0013 (≈ 0.00367 µM) | 0.00063 (≈ 0.00178 µM) | sensitivity (in words) (Trichophyton rubrum): highly sensitive; MIC (Candida albicans; [22]): 0.0625 µg/mL (≈ 0.176 µM); MIC (Candida albicans; [23]): 0.0313 µg/mL (≈ 0.0883 µM); MIC (Candida albicans; [24]): 0.0625 µg/mL (≈ 0.176 µM); MIC (Candida albicans; [25]): 0.25 µg/mL (≈ 0.706 µM); MIC (Candida albicans; [26]): 0.0625 µg/mL (≈ 0.176 µM); MIC (Candida albicans; [27]): 0.125 µg/mL (≈ 0.353 µM); MIC (Candida albicans; [28]): 16 µg/mL (≈ 45.2 µM); MIC (Candida albicans; [29]): 0.5 µg/mL (≈ 1.41 µM); MIC (Candida albicans; [30]): 2 µg/mL (≈ 5.65 µM); MIC (Candida albicans; [31]): 1 µg/mL (≈ 2.82 µM); MIC (Aspergillus fumigatus; TIMM0063, strain TIMM 0063, 48 hours at 35° C.): 0.00063 µg/mL (≈ 0.00178 µM); MIC (Aspergillus fumigatus; TIMM0078, strain TIMM 0078, 48 hours at 35° C.): 0.00063 µg/mL (≈ 0.00178 µM); MIC (Aspergillus fumigatus; TIMM1728, strain TIMM 1728, 48 hours at 35° C.): ≤ 0.00031 µg/mL; MIC (Aspergillus fumigatus; TIMM1767, strain TIMM 1767, 48 hours at 35° C.): 0.00063 µg/mL (≈ 0.00178 µM); antifungal activity relative to the racemic mixtures (dermatophytes): several times
OC(Cn1cncn1)(Cn1cncn1)c1ccc(F)cc1F [FCZ, 2(2,4-Difluorophenyl)-1,3-bis(1H-1,2,4-triazol-1-yl)-2-propanol] | – | – | – | – | – | – | – | – | – | – | – | – | – | – | – | – | – | – | – | – | MIC (Candida albicans; IFO0197, 48 h, pH 7): 0.25 µg/mL (≈ 0.816 µM); MIC (Candida albicans; IFO0579, 48 h, pH 7): 0.125 µg/mL (≈ 0.408 µM); MIC (Candida albicans; IFO1269, 48 h, pH 7): 0.25 µg/mL (≈ 0.816 µM); MIC (Candida albicans; IFO1270, 48 h, pH 7): 0.25 µg/mL (≈ 0.816 µM); MIC (Candida albicans; IFO1385, 48 h, pH 7): 0.25 µg/mL (≈ 0.816 µM); MIC (Candida albicans; IFO1386, 48 h, pH 7): 0.5 µg/mL (≈ 1.63 µM); MIC (Candida albicans; TIMM3163, 48 h, pH 7): 16 µg/mL (≈ 52.2 µM); MIC (Candida albicans; TIMM3164, 48 h, pH 7): 2 µg/mL (≈ 6.53 µM); MIC (Candida albicans; TIMM3165, 48 h, pH 7): > 32 µg/mL; MIC (Candida albicans; TIMM3166, 48 h, pH 7): 8 µg/mL (≈ 26.1 µM)
CN(C/C=C/C#CC(C)(C)C)Cc1cccc2ccccc12 [TBF, (E)N-(6,6-Dimethyl-2-hepten-4-ynyl)-N-methyl-1-naphthalenemethaneamine hyrochloride] | 0.02 (≈ 0.0686 µM) | 0.01 (≈ 0.0343 µM) | 0.005 (≈ 0.0172 µM) | 0.01 (≈ 0.0343 µM) | 0.01 (≈ 0.0343 µM) | 0.01 (≈ 0.0343 µM) | 0.01 (≈ 0.0343 µM) | 0.02 (≈ 0.0686 µM) | 0.01 (≈ 0.0343 µM) | 0.0025 (≈ 0.00858 µM) | 0.005 (≈ 0.0172 µM) | 0.005 (≈ 0.0172 µM) | 0.005 (≈ 0.0172 µM) | 0.0025 (≈ 0.00858 µM) | 0.005 (≈ 0.0172 µM) | 0.0025 (≈ 0.00858 µM) | 0.0025 (≈ 0.00858 µM) | 0.0025 (≈ 0.00858 µM) | 0.0013 (≈ 0.00446 µM) | 0.00063 (≈ 0.00216 µM) | MIC (Candida albicans; [22]): > 32 µg/mL; MIC (Candida albicans; [23]): > 32 µg/mL; MIC (Candida albicans; [24]): 4 µg/mL (≈ 13.7 µM); MIC (Candida albicans; [25]): > 32 µg/mL; MIC (Candida albicans; [26]): > 32 µg/mL; MIC (Candida albicans; [27]): > 32 µg/mL; MIC (Candida albicans; [28]): > 32 µg/mL; MIC (Candida albicans; [29]): > 32 µg/mL; MIC (Candida albicans; [30]): > 32 µg/mL; MIC (Candida albicans; [31]): > 32 µg/mL
